Results published in the SangsterLogP compilation.
Blank lines part the entries; values can stand above or below the compound they belong to.

What was measured:
[1] = from Wadhwa, L.; Chandiran, S.; Sharma, P. (2004). Alkyl esters of 6-methoxy-2-naphthylacetic acid as potential prodrugs - Synthesis, physicochemical properties, chemical stability and enzymatic …; conditions: pH 7.4
[2] = method code SF-AS, from DOI: 10.1016/0006-2952(90)90117-4, PMID: 2344368; conditions: pH 7.5
[3] = method code SF-AS, from Suikov, S.Yu.; Bondarenko, A.V.; Bogza, S.L.; Lutsyk, A.I. (2003). Distribution of 5-aminopyrazoles and 5-aminoisoxazoles in the octanol-water system. Ukr. Khim. Zh. (Russ. Ed.), 69(5/6)31-34.
[4] = method code SF, from DOI: 10.1177/00220345800590120501, PMID: 6941993
[5] = method code RP-HPLC, from DOI: 10.1021/jm00011a007, PMID: 7540207
[6] = method code SF-AS, from DOI: 10.2116/analsci.8.761; conditions: pH 6.0
[7] = pH 7.4
[8] = method code SF-FL, from DOI: 10.1016/0006-2952(96)00248-1, PMID: 8687500
[9] = method code SF-AS, from DOI: 10.1093/oxfordjournals.jbchem.a131041, PMID: 939756; conditions: pH 7.4
[10] = method code SF-AS, from PMID: 7149911; conditions: pH 8.9
[11] = method code SF-HPLC, from DOI: 10.1016/j.ejps.2013.10.002, PMID: 24161609
[12] = method code SF-HPLC, from DOI: 10.1248/cpb.38.1906, PMID: 2268893; conditions: pH 6.9
[13] = method code SF-AS, from DOI: 10.1016/j.bmcl.2014.05.029, PMID: 24930836
[14] = method code SF-EN, from DOI: 10.1016/s0022-2275(20)42614-8, PMID: 2280184; conditions: pH 1.0
[15] = method code SF-HPLC, from DOI: 10.1016/j.bmcl.2004.01.062, PMID: 15026043; conditions: pH 5.5
[16] = method code SF-RC, from DOI: 10.1016/j.nucmedbio.2016.05.003, PMID: 27236283; conditions: pH 7.4
[17] = method code SF-HPLC, from DOI: 10.1016/0168-3659(88)90058-2; conditions: pH 7.4
[18] = method code SF-AS, from DOI: 10.1021/jm00197a006, PMID: 533877
[19] = method code SF, from DOI: 10.1021/jm030399c, PMID: 14711317; conditions: pH 7.4
[20] = not given; remark: listed apart in the source
[21] = method code SF-AS, from DOI: 10.1081/jlc-120022394
[22] = not given; remark: listed apart in the source
[23] = method code SF-HPLC, from DOI: 10.1016/0378-5173(89)90133-6; conditions: pH 7.4
[24] = not given; remark: listed apart in the source
[25] = method code SF-AS, from DOI: 10.1021/acs.jmedchem.5b00731, PMID: 26397825; conditions: pH 7.4
[26] = method code SF-TN, from Korenman, I M.; Gurevich, N.; Kulagina, G. (1973). Extraction of certain n-alkylamines from aqueous solutions. Zh. Prikl. Khim., 46(3)726-728.
[27] = not given; remark: listed apart in the source
[28] = method code SF-AS, from DOI: 10.1021/jm00291a017, PMID: 5140011
[29] = method code SF-RC, from DOI: 10.1016/j.nucmedbio.2016.01.003, PMID: 27067043; conditions: pH 7.4
[30] = method code SF, from DOI: 10.1002/etc.5620130110
[31] = not given; remark: listed apart in the source
[32] = not given; remark: listed apart in the source

Structure (SMILES): COC(=O)Cc1ccc2cc(OC)ccc2c1
- logD [1]: 3.04

Structure (SMILES): COc1cccc2c1C(=O)c1c(O)c3c(c(O)c1C2=O)CC(O)(CCO)CC3OC1CC(NC(C)=O)C(O)C(C)O1 (centres undefined)
- logD [2]: 1.56

Structure (SMILES): Cc1noc(N)c1-c1ccccc1
- logP [3]: 2.02

Structure (SMILES): C=COC(C)=O
- logP [4]: 0.6

Structure (SMILES): CCCCCN=c1ccn(Cc2ccc3ccccc3c2)c2cc(Cl)ccc12
- logP [5]: 4.16

Structure (SMILES): OCc1cc(Br)cc(Br)c1O
- logD [6]: 2.72

Structure (SMILES): CCCCCN=c1ccn(Cc2cccc3ccccc23)c2cc(Cl)ccc12
- logP [5]: 4.01

Structure (SMILES): CCCCC(OC(Cc1ccccc1)C(=O)N1CCC(OCOC)CC1)C(=O)NC(CC1CCCCC1)[C@@H](O)CC(C(=O)NCCCN/C(=N/C)NC#N)C(C)C (some centres undefined)
- logD [7]: 4.4

Structure (SMILES): COC1=C(C2=C(OC)C(=O)c3cc4c(c(O)c3C2=O)C(=O)O[C@H](C)C4)C(=O)c2c(cc3c(c2O)C(=O)O[C@H](C)C3)C1=O
- logD [9]: 0.37

Structure (SMILES): CN(N=O)C(N)=O
- logD [10]: -0.4

Structure (SMILES): Cc1cc2ncn(CC(O)COc3cc(OCC(O)Cn4cnc5cc(C)c(C)cc54)c4c(C)cc(=O)oc4c3)c2cc1C (centres undefined)
- logP [13]: 0.61

Structure (SMILES): CN(C)C(=O)Oc1ccc(CC(NC(=O)C2N(S(=O)(=O)c3cnn(C)c3)CSC2(C)C)C(=O)OCCOc2ccccc2)cc1 (centres undefined)
- logD [15]: 3.27

Structure (SMILES): COc1cccc2c1C(=O)c1c(O)c3c(c(O)c1C2=O)CC(O)(C(=O)CO)CC3OC1CC(NC(=O)OCc2ccc(OC3OC(C(=O)O)C(O)C(O)C3O)c([N+](=O)[O-])c2)C(O)C(C)O1 (centres undefined)
- logP [8]: -0.74

Structure (SMILES): CCCCOC(=O)Cc1ccc2cc(OC)ccc2c1
- logD [1]: 4.75

Structure (SMILES): COc1cc(OCCF)cc(OC)c1NC(=O)c1ccc(Oc2cc3c(cc2C)CCC3(C)C)o1
- logD [16]: 2.1

Structure (SMILES): Cc1nnn[nH]1
- logP: -0.49

Structure (SMILES): C#CC1(OC(=O)OCC(O)CO)CCC2C3CCC4=CC(=O)CCC4C3CCC21CC (centres undefined)
- logD [17]: 3.22

Structure (SMILES): Cc1cc(=O)oc2cc(OCC(O)Cn3nnc4ccccc43)cc(OCC(O)Cn3nnc4ccccc43)c12 (centres undefined)
- logP [13]: 0.48

Structure (SMILES): O=C(NCCOCCNc1n[n+]([O-])c2ccccc2[n+]1[O-])c1cccc2cc3ccccc3nc12
- logD [19]: 1.84

Structure (SMILES): OC(Cn1ccnc1)c1ccc(CCc2ccccc2)cc1 (centres undefined)
- logD [23]: 3.4

Structure (SMILES): COCCOCCOCCOCCOCN(C)c1ccc(C=C2CC(=Cc3ccc(N(C)COCCOCCOCCOCCOC)cc3)C2=O)cc1
- logD [25]: 2.54

Structure (SMILES): COc1cc(NCCCF)cc(OC)c1NC(=O)c1ccc(Oc2cc3c(cc2C)CCC3(C)C)o1
- logD [16]: 1.51

Structure (SMILES): COCCOCCOCCOCCOCN(C)c1ccc(C=C2CCC(=Cc3ccc(N(C)COCCOCCOCCOCCOC)cc3)C2=O)cc1
- logD [25]: 2.73

Structure (SMILES): CCCN
- logP [26]: 0.28

Structure (SMILES): CC(Cl)Cl
- logP [27]: 1.82

Structure (SMILES): S=C1CCCN1
- logP [28]: -0.05

Structure (SMILES): C#CC1(OC(=O)OCCCCC(O)CO)CCC2C3CCC4=CC(=O)CCC4C3CCC21CC (centres undefined)
- logD [17]: 3.75

Structure (SMILES): COC1=C(C2=C(OC)C(=O)c3c4c(cc(OC)c3C2=O)CC(C)OC4=O)C(=O)c2c(OC)cc3c(c2C1=O)C(=O)OC(C)C3 (centres undefined)
- logD [9]: 0.69

Structure (SMILES): Cc1c(-c2ccccc2)n[nH]c1N
- logP [3]: 1.65

Structure (SMILES): COP(=O)(OC)C(O)C(Cl)(Cl)Cl (centres undefined)
- logP [30]: 1.7

Structure (SMILES): CNC(N)=S
- logP [31]: -0.68

Structure (SMILES): O=[N+]([O-])c1cncnc1
- logP [32]: -0.05

Other lines, results leading:

- logP [8]: -2
Structure (SMILES): COc1cccc2c1C(=O)c1c(O)c3c(c(O)c1C2=O)CC(O)(C(C)=O)CC3OC1CC(NC(=O)OC2OC(C(=O)O)C(O)C(O)C2O)C(O)C(C)O1 (centres undefined)

- logD [7]: 4.3
Structure (SMILES): CCCCC(OC(Cc1ccccc1)C(=O)N1CCC(OCOC)CC1)C(=O)NC(CC1CCCCC1)[C@@H](O)CC(C(=O)NCCCNC(C)=O)C(C)C (some centres undefined)

- logP [11]: -0.04
Structure (SMILES): O=C(O)/C=C/C(=O)O

- logD [12]: 2.16
Structure (SMILES): CON=C(C(=O)NC1C(=O)N2C(C(=O)OCOC(=O)C(C)(C)C)=C(CN(C=O)C(C)=C(CCC(C)=O)SC(C)=O)CSC12)c1csc(N)n1 (centres undefined)

- logD [14]: 2.8
Structure (SMILES): C[C@H](CCC(=O)O)[C@H]1CC[C@H]2[C@@H]3C[C@H](O)[C@@H]4C[C@H](O)CC[C@]4(C)[C@H]3C[C@H](O)[C@]12C

- logD [2]: 1.27
Structure (SMILES): COc1cccc2c1C(=O)c1c(O)c3c(c(O)c1C2=O)C[C@@](O)(C(=O)CO)C[C@@H]3O[C@H]1C[C@H](NC(C)=O)[C@H](O)[C@H](C)O1

- logD [12]: 1.37
Structure (SMILES): CON=C(C(=O)NC1C(=O)N2C(C(=O)OCOC(=O)C(C)(C)C)=C(CN(C=O)C(C)=C3CCOC(=O)S3)CSC12)c1csc(N)n1 (centres undefined)

- logP [18]: 0.39
Structure (SMILES): CC(=O)C=NO

- logP [20]: 2.9
Structure (SMILES): CC(=O)O[C@H]1C(=O)[C@@]2(C)[C@H]([C@H](OC(=O)c3ccccc3)[C@]3(O)C[C@H](OC(=O)[C@H](O)Cc4ccccc4)C(C)=C1C3(C)C)[C@]1(OC(C)=O)CO[C@@H]1C[C@@H]2O

- logP [21]: 1.97
Structure (SMILES): CCOC(=O)C(=Cc1ccc(OC)c(OC)c1)NC=O

- logP [22]: 3.99
Structure (SMILES): CCN(CC)C(=O)C(C#N)=Cc1cc(OC(=O)CC(=O)C(C)(C)C)c(OC(=O)CC(=O)C(C)(C)C)c([N+](=O)[O-])c1

- logP [24]: -2
Structure (SMILES): O=C(O)P(=O)(O)O

- logD [14]: 1.9
Structure (SMILES): CC(CCC(=O)NCC(=O)O)C1CCC2C3C(O)CC4CC(O)CCC4(C)C3CC(C)(O)C12 (centres undefined)

- logP [21]: 2.22
Structure (SMILES): CCOC(=O)C(=Cc1ccc(OC)cc1)NC=O

- logP [22]: 3.86
Structure (SMILES): CCN(CC)C(=O)C(C#N)=Cc1cc(OCOC(=O)C(C)(C)C)c(OCOC(=O)C(C)(C)C)c([N+](=O)[O-])c1

- logD [29]: 3
Structure (SMILES): C=CC(=O)NCCCCC(NC(=O)OCc1ccccc1)C(=O)N1CCN(c2ccccc2Cl)CC1 (centres undefined)

- logP [20]: 2.9
Structure (SMILES): CC(=O)O[C@H]1C(=O)[C@@]2(C)[C@H]([C@H](OC(=O)c3ccccc3)[C@]3(O)C[C@H](OC(=O)[C@@H](O)Cc4ccccc4)C(C)=C1C3(C)C)[C@]1(OC(C)=O)CO[C@@H]1C[C@@H]2O
